Measured values taken from US6759538B2, “Substituted diphenyl heterocycles useful for treating HCV infection” (priority 2001, dated 2004).

Target: HCV replicon
Assay: HCV replicon assay (luciferase)
Type: cell-based, Hepatitis C virus (HCV)
Settings: 5-2 Luc replicon cells, 24 hours with compound, luciferase emission; first symbol of Replicon/Western
Source text: In one embodiment, the inhibitory activity of the compounds can be confirmed in a replicon assay that assesses the ability of a test compound to block or inhibit HCV replication in replicon cells. One example of a suitable replicon assay is the liver cell-line Huh 7-based replicon assay described in Lohmann et al., 1999, Science 285:110-113. A specific example of this replicon assay which utilizes luciferase translation is provided in the Examples Section. In one embodiment of this assay, the amount of test compound that yields a 50% reduction in translation as compared to a control cell (IC50) may be determined.
The inhibitory activity of certain exemplary compounds of the invention was confirmed using an HCV replicon assay. The HCV replicon can include such features as the HCV 5′ untranslated region including the HCV IRES, the HCV 3′ untranslated region, selected HCV genes encoding HCV polypeptides, selectable markers, and a reporter gene such as luciferase, GFP, etc. In the assay, actively dividing 5-2 Luc replicon-comprising cells (obtained from Rolf Bartenschlager; see Lohmann et al., 1999, Science 285:110-113) were seeded at a density of between about 5,000 and 7,500 cells/well onto 96 well plates (about 90 μl of cells per well) and incubated at 37° C. and 5% CO2 for 24 hours. Then, the test compound (in a volume of about 10 μl) was added to the wells at various concentrations and the cells were incubated for an additional 24 hours before luciferase assay. The media was aspirated from each well and Bright-Glo (Promega, Madison, Wis.) luciferase assay reagents were added to each well according to the manufacturer's instructions. Briefly, the Bright-Glo reagent was diluted 1:1 with PBS and 100 μl of diluted reagent was added to each well. After 5 min of incubation at room temperature, luciferin emission was quantified with a luminometer. In this assay, the amount of test compound that yielded a 50% reduction in luciferase emission (IC50) was determined.

SMILES	IC50 [µM]
O=C(Nc1cccc(-c2cc(-c3c(Cl)cccc3Cl)no2)c1)C(F)F [Compound 145, 2,2-Difluoro-N-[3-[3-(2,6-dichlorophenyl)-5-isoxazolyl]phenyl] Acetamide]	> 10
Cc1ccc(F)c(-c2cc(-c3cccc(NC(=O)C(Cl)Cl)c3)on2)c1F [Compound 149, 2,2-Dichloro-N-[3-[3-(2,6-difluoro-3-methylphenyl)-5-isoxazolyl]phenyl] Acetamide]	> 10
CCOC(=O)C1CCN(c2cccc(Cl)c2-c2cc(-c3cccc(NC(=O)C(Cl)Cl)c3)on2)CC1 [Compound 151, 2,2-Dichloro-N-[3-[3-[2-chloro-6-(4-carboethoxypiperidino)phenyl]-5-isoxazolyl]-phenyl] Acetamide]	> 10
CS(=O)(=O)c1cccc(F)c1-c1cc(-c2cccc(NC(=O)C(Cl)Cl)c2)on1 [Compound 153, 2,2-Dichloro-N-[3-[3-(2-fluoro-6-methylsulfonyl)phenyl-5-isoxazolyl]phenyl] Acetamide]	> 10
O=C(O)c1ccccc1-c1cc(-c2cccc(NC(=O)C(Cl)Cl)c2)on1 [Compound 157, 2,2-Dichloro-N-[3-[3-(2-carboxyphenyl)-5-isoxazolyl]phenyl] Acetamide]	> 10
O=C(Nc1cccc(-c2cc(-c3ccccc3OCc3ccccc3)no2)c1)C(Cl)Cl [Compound 161, 2,2-Dichloro-N-[3-[3-(2-benzyloxyphenyl)-5-isoxazolyl]phenyl] Acetamide]	> 10
Cc1ccc(-c2cc(-c3c(Cl)cccc3Cl)no2)cc1NC(=O)C(Cl)Cl [Compound 165, 2,2-Dichloro-N-[3-[3-(2,6-dichlorophenyl)-5-isoxazolyl]-6-methylphenyl] Acetamide]	> 10
Cc1c(NC(=O)C(Cl)Cl)cccc1-c1cc(-c2c(Cl)cccc2Cl)no1 [Compound 167, 2,2-Dichloro-N-[3-[3-(2,6-dichlorophenyl)-5-isoxazolyl]-2-methylphenyl] Acetamide]	> 10
O=C(Nc1cc(-c2cc(-c3c(Cl)cccc3Cl)no2)ccc1N1CCOCC1)C(Cl)Cl [Compound 169]	> 10
O=C(Nc1cc(-c2cc(-c3c(Cl)cccc3Cl)no2)ccc1OCCN1CCOCC1)C(Cl)Cl [Compound 171, 2,2-Dichloro-N-[3-[3-(2,6-dichlorophenyl)-5-isoxazolyl]-6-(N-morpholino-2-ethyleneoxy)phenyl] Acetamide]	> 10
COc1ccc(-c2cc(-c3c(Cl)cccc3Cl)no2)cc1NC(=O)C(Cl)Cl [Compound 173, 2,2-Dichloro-N-[3-[3-(2,6-dichlorophenyl)-5-isoxazolyl]-6-methoxyphenyl] Acetamide]	≤ 10
